Test results as given in PubChem BioAssay AID192 (DTP/NCI, 2004).
Where “and” joins values, the source holds several entries; their conditions need not be identical. Equal entries are not always repeated. Inconclusive results and toxic doses are left out.

Tested on: BDF1 mice, B16 melanoma ip, median survival T/C
Test: NCI In Vivo Anticancer Drug Screen. Data for tumor model B16 Melanoma (intraperitoneal) in B6D2F1 (BDF1) mice
Settings: endpoint: median survival time, higher = longer survival
In short: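 Each result divides a survival or tumor-size measurement in the compound-treated group by the same measurement in the vehicle group.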

[1] = dose: 6.25 mg/kg/injection, schedule: Q01DX009 (ip), vehicle: Klucel (hydroxypropylcellulose) (HPC)
[2] = dose: 12.5 mg/kg/injection, schedule: Q01DX009 (ip), vehicle: Klucel (hydroxypropylcellulose) (HPC)
[3] = dose: 25.0 mg/kg/injection, schedule: Q01DX009 (ip), vehicle: Klucel (hydroxypropylcellulose) (HPC)
[4] = dose: 100.0 mg/kg/injection, schedule: Q01DX009 (ip), vehicle: Klucel (hydroxypropylcellulose) (HPC)
[5] = dose: 200.0 mg/kg/injection, schedule: Q01DX009 (ip), vehicle: Klucel (hydroxypropylcellulose) (HPC)
[6] = dose: 1.56 mg/kg/injection, schedule: Q01DX009 (ip), vehicle: saline
[7] = dose: 3.12 mg/kg/injection, schedule: Q01DX009 (ip), vehicle: saline
[8] = dose: 100.0 mg/kg/injection, schedule: Q01DX009 (ip), vehicle: saline with Tween-80
[9] = dose: 200.0 mg/kg/injection, schedule: Q01DX009 (ip), vehicle: saline with Tween-80
[10] = dose: 12.5 mg/kg/injection, schedule: Q01DX009 (ip), vehicle: saline with Tween-80
[11] = dose: 25.0 mg/kg/injection, schedule: Q01DX009 (ip), vehicle: saline with Tween-80
[12] = dose: 50.0 mg/kg/injection, schedule: Q01DX009 (ip), vehicle: saline with Tween-80
[13] = dose: 50.0 mg/kg/injection, schedule: Q01DX009 (ip), vehicle: saline
[14] = dose: 100.0 mg/kg/injection, schedule: Q01DX009 (ip), vehicle: saline
[15] = dose: 200.0 mg/kg/injection, schedule: Q01DX009 (ip), vehicle: saline
[16] = dose: 12.5 mg/kg/injection, schedule: Q01DX009 (ip), vehicle: saline
[17] = dose: 25.0 mg/kg/injection, schedule: Q01DX009 (ip), vehicle: saline
[18] = dose: 6.25 mg/kg/injection, schedule: Q01DX009 (ip), vehicle: saline

CC(C)NNC(C)Cc1ccccc1 (configuration not stated)
T/C (dose: 1.56 mg/kg/injection, schedule: Q01DX009 (ip), vehicle: Klucel (hydroxypropylcellulose) (HPC)): 91 % of control | T/C (dose: 3.12 mg/kg/injection, schedule: Q01DX009 (ip), vehicle: Klucel (hydroxypropylcellulose) (HPC)): 86 % of control | T/C [1]: 86 % of control | T/C [2]: 91 % of control | T/C [3]: 97 % of control

O=S(=O)(NC(=S)S)c1ccccc1
T/C (dose: 12.5 mg/kg/injection, schedule: Q01DX009 (ip), vehicle: water): 91 % of control | T/C (dose: 25.0 mg/kg/injection, schedule: Q01DX009 (ip), vehicle: water): 94 % of control | T/C (dose: 50.0 mg/kg/injection, schedule: Q01DX009 (ip), vehicle: water): 86 % of control

CC(C)CCC[C@@H](C)[C@H]1CC[C@H]2[C@@H]3CC=C4C[C@@H](OC(=O)Cc5ccc(N(CCCl)CCCl)cc5)CC[C@]4(C)[C@H]3CC[C@]12C
T/C (dose: 50.0 mg/kg/injection, schedule: Q01DX009 (oral), vehicle: saline): 108 % of control | T/C (dose: 100.0 mg/kg/injection, schedule: Q01DX009 (oral), vehicle: saline): 104 % of control | T/C (dose: 200.0 mg/kg/injection, schedule: Q01DX009 (oral), vehicle: saline): 110 % of control | T/C (dose: 400.0 mg/kg/injection, schedule: Q01DX009 (oral), vehicle: saline): 104 % of control | T/C (dose: 800.0 mg/kg/injection, schedule: Q01DX009 (oral), vehicle: saline): 110 % of control

CC1(C)C2CCC1(C)C(COC(=O)c1cc([N+](=O)[O-])cc([N+](=O)[O-])c1)C2 (configuration not stated)
T/C [4]: 96 % of control | T/C [5]: 93 % of control | T/C (dose: 400.0 mg/kg/injection, schedule: Q01DX009 (ip), vehicle: Klucel (hydroxypropylcellulose) (HPC)): 87 % of control

O=c1[nH]c(=O)n(C2OC(CO)C(O)C2O)cc1F (configuration not stated)
T/C (dose: 0.78 mg/kg/injection, schedule: Q01DX009 (ip), vehicle: saline): 156 % of control | T/C [6]: 165 % of control | T/C [7]: 165 % of control

O=C(Nc1ccccc1C(F)(F)F)c1ccc(Cl)cc1Cl
T/C [8]: 97 % of control | T/C [9]: 92 % of control

C(=N\Nc1nn[nH]n1)/c1ccccc1
T/C [10]: 92 % of control | T/C [11]: 96 % of control | T/C [12]: 89 % of control | T/C [8]: 90 % of control

Nc1ncc(N)c(N)n1
T/C [13]: 102 % of control | T/C [14]: 112 % of control | T/C [15]: 108 % of control

O=S(=O)(Nc1ccccc1)c1ccc(C2CC3(Cl)C(Cl)=C(Cl)C2(Cl)C3(Cl)Cl)cc1 (configuration not stated)
T/C [4]: 100 % of control | T/C [5]: 87 % of control

CCN(CC)CCCC#CCN1CCCC1
T/C [3]: 100 % of control | T/C (dose: 50.0 mg/kg/injection, schedule: Q01DX009 (ip), vehicle: Klucel (hydroxypropylcellulose) (HPC)): 93 % of control | T/C [4]: 93 % of control

CCN(CC)C(=O)c1cccnc1
T/C [16]: 109 % of control | T/C [17]: 123 % of control | T/C [13]: 107 % of control | T/C [14]: 103 % of control | T/C [15]: 102 % of control

CC(C)[NH-].CC(C)[NH-].O.O.[Cl][Pt+2][Cl]
T/C (dose: 3.12 mg/kg/injection, schedule: Q01DX009 (ip), vehicle: dextrose): 118 % of control | T/C (dose: 3.13 mg/kg/injection, schedule: Q01DX009 (ip), vehicle: dextrose): 122 % of control | T/C (dose: 12.5 mg/kg/injection, schedule: Q01DX009 (ip), vehicle: dextrose): 164 % of control and 168 % of control

c1ccc(CN2CCOC2)cc1
T/C [16]: 115 % of control | T/C [17]: 111 % of control | T/C [13]: 122 % of control | T/C [14]: 111 % of control

CC(C)CNN(CC(C)C)C(N)=O
T/C [8]: 111 % of control | T/C [9]: 86 % of control

CNc1nc2c(N)ncnc2n1C1OC(CO)C(O)C1O (configuration not stated)
T/C [6]: 94 % of control | T/C [7]: 90 % of control | T/C [18]: 95 % of control | T/C [16]: 101 % of control | T/C [17]: 101 % of control

CCCCCCOCCN1CCN(CCCN2c3ccccc3Sc3ccc(C(F)(F)F)cc32)CC1
T/C (dose: 0.5 mg/kg/injection, schedule: Q01DX009 (ip), vehicle: saline with Tween-80): 112 % of control | T/C (dose: 1.0 mg/kg/injection, schedule: Q01DX009 (ip), vehicle: saline with Tween-80): 109 % of control | T/C (dose: 2.0 mg/kg/injection, schedule: Q01DX009 (ip), vehicle: saline with Tween-80): 109 % of control

C/C(=C\c1ccc(C)cc1)[N+](=O)[O-]
T/C [11]: 89 % of control | T/C [12]: 96 % of control

Cc1cccc(C)c1N.[C-]#[O+].[C-]#[O+].[C-]#[O+].[Cr]
T/C [1]: 103 % of control | T/C [2]: 100 % of control | T/C [3]: 100 % of control and 112 % of control

Cc1cc(NC(=O)CCc2ccc(N3C(N)=NC(N)=NC3(C)C)cc2)ccc1S(=O)(=O)F
T/C (dose: 50.0 mg/kg/injection, schedule: Q01DX009 (ip), vehicle: saline sonified): 118 % of control | T/C (dose: 100.0 mg/kg/injection, schedule: Q01DX009 (ip), vehicle: saline sonified): 94 % of control | T/C (dose: 200.0 mg/kg/injection, schedule: Q01DX009 (ip), vehicle: saline sonified): 100 % of control

C=C1CCN(c2ccc([N+](=O)[O-])cc2)C1=O
T/C (dose: 4.0 mg/kg/injection, schedule: Q01DX009 (ip), vehicle: saline + alcohol): 97 % of control | T/C (dose: 8.0 mg/kg/injection, schedule: Q01DX009 (ip), vehicle: saline + alcohol): 107 % of control | T/C (dose: 16.0 mg/kg/injection, schedule: Q01DX009 (ip), vehicle: saline + alcohol): 98 % of control | T/C (dose: 32.0 mg/kg/injection, schedule: Q01DX009 (ip), vehicle: saline + alcohol): 89 % of control | T/C (dose: 64.0 mg/kg/injection, schedule: Q01DX009 (ip), vehicle: saline + alcohol): 95 % of control

O=C1NC(=O)c2cccc3cccc1c23
T/C (dose: 100.0 mg/kg/injection, schedule: Q04DX003 (ip), vehicle: saline with Tween-80): 94 % of control

OCCN1CCN(CCCN2c3ccccc3C=Cc3ccccc32)CC1
T/C [7]: 97 % of control | T/C (dose: 3.12 mg/kg/injection, schedule: Q04DX003 (ip), vehicle: saline): 105 % of control | T/C [18]: 110 % of control | T/C [16]: 100 % of control | T/C (dose: 12.5 mg/kg/injection, schedule: Q04DX003 (ip), vehicle: saline): 107 % of control | T/C [17]: 95 % of control | T/C (dose: 25.0 mg/kg/injection, schedule: Q04DX003 (ip), vehicle: saline): 122 % of control | T/C [13]: 95 % of control | T/C (dose: 50.0 mg/kg/injection, schedule: Q04DX003 (ip), vehicle: saline): 115 % of control

CCCN(/C=C/C=C/C=[N+](CCC)CCC)CCC
T/C (dose: 0.03 mg/kg/injection, schedule: Q01DX009 (ip), vehicle: saline): 107 % of control | T/C (dose: 0.05 mg/kg/injection, schedule: Q01DX009 (ip), vehicle: saline): 109 % of control | T/C (dose: 0.1 mg/kg/injection, schedule: Q01DX009 (ip), vehicle: saline): 103 % of control | T/C (dose: 0.2 mg/kg/injection, schedule: Q01DX009 (ip), vehicle: saline): 96 % of control

CN=S(=O)(OCCCCCOS(=O)(=NC)c1ccccc1)c1ccccc1 (configuration not stated)
T/C (dose: 1.5 mg/kg/injection, schedule: Q01DX009 (ip), vehicle: saline with Tween-80): 111 % of control | T/C (dose: 3.0 mg/kg/injection, schedule: Q01DX009 (ip), vehicle: saline with Tween-80): 104 % of control | T/C (dose: 6.0 mg/kg/injection, schedule: Q01DX009 (ip), vehicle: saline with Tween-80): 122 % of control | T/C [10]: 94 % of control | T/C (dose: 24.0 mg/kg/injection, schedule: Q01DX009 (ip), vehicle: saline with Tween-80): 169 % of control | T/C [11]: 122 % of control

COc1ccc(Cl)cc1N
T/C [11]: 95 % of control | T/C [12]: 100 % of control | T/C [8]: 105 % of control

CCOC(=O)C1CCCN(S(=O)(=O)c2ccc(C)cc2)c2ccccc2C1=O (configuration not stated)
T/C (dose: 100.0 mg/kg/injection, schedule: Q04DX003 (ip), vehicle: Klucel (hydroxypropylcellulose) (HPC)): 96 % of control | T/C (dose: 200.0 mg/kg/injection, schedule: Q04DX003 (ip), vehicle: Klucel (hydroxypropylcellulose) (HPC)): 88 % of control | T/C (dose: 400.0 mg/kg/injection, schedule: Q04DX003 (ip), vehicle: Klucel (hydroxypropylcellulose) (HPC)): 95 % of control

O=NN(CCBr)C(=O)NCCBr
T/C (dose: 50.0 mg/kg/injection, schedule: Q01DX009 (ip), vehicle: gum acacia): 107 % of control | T/C (dose: 66.0 mg/kg/injection, schedule: Q01DX009 (ip), vehicle: gum acacia): 109 % of control | T/C (dose: 100.0 mg/kg/injection, schedule: Q01DX009 (ip), vehicle: gum acacia): 116 % of control
